Assays:
Assay type in all cases: in vivo
[1] = test system: Echinochloa crus-galli (ECHCG); assay: Pre-emergence herbicidal test; conditions: 1000 g/ha, evaluated after 13 days
[2] = test system: Abutilon theophrasti (ABUTH); assay: Pre-emergence herbicidal test; conditions: 1000 g/ha, evaluated after 13 days
Zea mays (ZEAMX) [3] = assay: Pre-emergence herbicidal test; conditions: 1000 g/ha, evaluated after 13 days
Setaria faberi (SETFA) [4] = assay: Pre-emergence herbicidal test; conditions: 1000 g/ha, evaluated after 13 days
[5] = test system: Ipomoea hederacea (IPOHE); assay: Pre-emergence herbicidal test; conditions: 1000 g/ha, evaluated after 13 days
[6] = test system: Amaranthus retoflexus (AMARE); assay: Pre-emergence herbicidal test; conditions: 1000 g/ha, evaluated after 13 days
[7] = test system: Abutilon theophrasti (ABUTH); assay: Post-emergence herbicidal test; conditions: 1000 g/ha unless otherwise stated, evaluated after 13 days
Outline: (§1)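 Pots sown in standard soil were kept in a glasshouse (24° C./16° C. day/night, 14 hours light, 65% humidity) and sprayed at 1000 g/ha unless otherwise stated in acetone/water (50:50) with 0.5% Tween 20. Percentage damage was scored after 13 days on a 0–5 scale.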

[8] = test system: Amaranthus retoflexus (AMARE); assay: Post-emergence herbicidal test; conditions: 1000 g/ha unless otherwise stated, evaluated after 13 days
Outline: as §1

Setaria faberi (SETFA) [9] = assay: Post-emergence herbicidal test; conditions: 1000 g/ha unless otherwise stated, evaluated after 13 days
Outline: as §1

[10] = test system: Ipomoea hederacea (IPOHE); assay: Post-emergence herbicidal test; conditions: 1000 g/ha unless otherwise stated, evaluated after 13 days
Outline: as §1

[11] = test system: Echinochloa crus-galli (ECHCG); assay: Post-emergence herbicidal test; conditions: 1000 g/ha unless otherwise stated, evaluated after 13 days
Outline: as §1

Zea mays (ZEAMX) [12] = assay: Post-emergence herbicidal test; conditions: 1000 g/ha unless otherwise stated, evaluated after 13 days
Outline: as §1

Compound	percentage damage caused to the plant, five-point scale, ECHCG [1]	percentage damage caused to the plant, five-point scale, ABUTH [2]	percentage damage caused to the plant, five-point scale, ZEAMX (Zea mays (ZEAMX) [3])	percentage damage caused to the plant, five-point scale, SETFA (Setaria faberi (SETFA) [4])	percentage damage caused to the plant, five-point scale, IPOHE [5]	percentage damage caused to the plant, five-point scale, AMARE [6]	percentage damage caused to the plant, ABUTH (five-point scale) [7]	percentage damage caused to the plant, AMARE (five-point scale) [8]	percentage damage caused to the plant, SETFA (five-point scale) (Setaria faberi (SETFA) [9])	percentage damage caused to the plant, IPOHE (five-point scale) [10]	percentage damage caused to the plant, ECHCG (five-point scale) [11]	percentage damage caused to the plant, ZEAMX (five-point scale) (Zea mays (ZEAMX) [12])
CC(OC(=O)c1nn(-c2ccc(OC(F)(F)F)cc2)c2cccc(S(C)(=O)=O)c2c1=O)C1CC1 (stereo not drawn) [Compound P74, 1-cyclopropylethyl 5-methylsulfonyl-4-oxo-1-[4-(trifluoromethoxy)phenyl]cinnoline-3-carboxylate]	4 (4=61-80%)	0 (0=0%)	0 (0=0%)	5 (5=81-100%)	0 (0=0%)	0 (0=0%)	1 (1=10-20%)	1 (1=10-20%)	4 (4=61-80%)	0 (0=0%)	4 (4=61-80%)	1 (1=10-20%)
CCCCCOC(=O)c1nn(-c2ccc(OC(F)(F)F)cc2)c2cccc(S(C)(=O)=O)c2c1=O [Compound P75, penyl 5-methylsulfonyl-4-oxo-1-[4-(trifluoromethoxy)phenyl]cinnoline-3-carboxylate]	4 (4=61-80%)	0 (0=0%)	1 (1=10-20%)	4 (4=61-80%)	0 (0=0%)	0 (0=0%)	0 (0=0%)	0 (0=0%)	4 (4=61-80%)	0 (0=0%)	3 (3=41-60%)	0 (0=0%)
CN(C)CCOC(=O)c1nn(-c2ccc(OC(F)(F)F)cc2)c2cccc(S(C)(=O)=O)c2c1=O [Compound P76, 2-(dimethylamino)ethyl 5-methylsulfonyl-4-oxo-1-[4-(trifluoromethoxy)phenyl]cinnoline-3-carboxylate]	3 (3=41-60%)	1 (1=10-20%)	0 (0=0%)	4 (4=61-80%)	0 (0=0%)	0 (0=0%)	2 (2=21-40%)	1 (1=10-20%)	4 (4=61-80%)	1 (1=10-20%)	3 (3=41-60%)	1 (1=10-20%)
CCCCCCCOC(=O)c1nn(-c2ccc(OC(F)(F)F)cc2)c2cccc(S(C)(=O)=O)c2c1=O [Compound P77, heptyl 5-methylsulfonyl-4-oxo-1-[4-(trifluoromethoxy)phenyl]cinnoline-3-carboxylate]	3 (3=41-60%)	0 (0=0%)	0 (0=0%)	5 (5=81-100%)	0 (0=0%)	0 (0=0%)	1 (1=10-20%)	0 (0=0%)	4 (4=61-80%)	0 (0=0%)	3 (3=41-60%)	0 (0=0%)
C#CCOC(=O)c1nn(-c2ccc(OC(F)(F)F)cc2)c2cccc(S(C)(=O)=O)c2c1=O [Compound P79, prop-2-ynyl 5-methylsulfonyl-4-oxo-1-[4-(trifluoromethoxy)phenyl]cinnoline-3-carboxylate]	5 (5=81-100%)	0 (0=0%)	1 (1=10-20%)	5 (5=81-100%)	1 (1=10-20%)	0 (0=0%)	1 (1=10-20%)	0 (0=0%)	4 (4=61-80%)	1 (1=10-20%)	4 (4=61-80%)	1 (1=10-20%)
C=CCOC(=O)c1nn(-c2ccc(OC(F)(F)F)cc2)c2cccc(S(C)(=O)=O)c2c1=O [Compound P80, allyl 5-methylsulfonyl-4-oxo-1-[4-(trifluoromethoxy)phenyl]cinnoline-3-carboxylate]	4 (4=61-80%)	0 (0=0%)	1 (1=10-20%)	5 (5=81-100%)	0 (0=0%)	0 (0=0%)	1 (1=10-20%)	0 (0=0%)	4 (4=61-80%)	1 (1=10-20%)	3 (3=41-60%)	1 (1=10-20%)
COC(=O)COC(=O)c1nn(-c2ccc(OC(F)(F)F)cc2)c2cccc(S(C)(=O)=O)c2c1=O [Compound P81, (2-methoxy-2-oxo-ethyl) 5-methylsulfonyl-4-oxo-1-[4-(trifluoromethoxy)phenyl]cinnoline-3-carboxylate]	4 (4=61-80%)	0 (0=0%)	0 (0=0%)	5 (5=81-100%)	0 (0=0%)	0 (0=0%)	1 (1=10-20%)	1 (1=10-20%)	4 (4=61-80%)	0 (0=0%)	3 (3=41-60%)	1 (1=10-20%)
CCCCCCCCCOC(=O)c1nn(-c2ccc(OC(F)(F)F)cc2)c2cccc(S(C)(=O)=O)c2c1=O [Compound P82, nonyl 5-methylsulfonyl-4-oxo-1-[4-(trifluoromethoxy)phenyl]cinnoline-3-carboxylate]	1 (1=10-20%)	0 (0=0%)	0 (0=0%)	3 (3=41-60%)	0 (0=0%)	0 (0=0%)	1 (1=10-20%)	0 (0=0%)	0 (0=0%)	1 (1=10-20%)	1 (1=10-20%)	1 (1=10-20%)
CS(=O)(=O)c1cccc2c1c(=O)c(C(=O)OCCCCCCCCCc1ccccc1)nn2-c1ccc(OC(F)(F)F)cc1 [Compound P83, 9-phenylnonyl 5-methylsulfonyl-4-oxo-1-[4-(trifluoromethoxy)phenyl]cinnoline-3-carboxylate]	0 (0=0%)	0 (0=0%)	0 (0=0%)	0 (0=0%)	0 (0=0%)	0 (0=0%)	0 (0=0%)	0 (0=0%)	0 (0=0%)	0 (0=0%)	0 (0=0%)	0 (0=0%)

— patent publication US20230250066A1, “HERBICIDAL CINNOLINE DERIVATIVES” (SYNGENTA CROP PROTECTION AG, priority 2020, published 2023)
